Reference: ChEMBL document CHEMBL5291721, “A preclinical secondary pharmacology resource illuminates target-adverse drug reaction associations of marketed drugs” (Nat Commun, 2023)

Legend:
Melanocortin receptor 3 = Melanocortin receptor 3 (Homo sapiens, UniProt P41968)
Melanocortin receptor 4 = Melanocortin receptor 4 (Homo sapiens, UniProt P32245)
[1] = target: Kappa-type opioid receptor (Homo sapiens, UniProt P41145)
[2] = target: T1, Type-1 angiotensin II receptor (Homo sapiens, UniProt P30556)
T1 sequence (P30556 whole entry): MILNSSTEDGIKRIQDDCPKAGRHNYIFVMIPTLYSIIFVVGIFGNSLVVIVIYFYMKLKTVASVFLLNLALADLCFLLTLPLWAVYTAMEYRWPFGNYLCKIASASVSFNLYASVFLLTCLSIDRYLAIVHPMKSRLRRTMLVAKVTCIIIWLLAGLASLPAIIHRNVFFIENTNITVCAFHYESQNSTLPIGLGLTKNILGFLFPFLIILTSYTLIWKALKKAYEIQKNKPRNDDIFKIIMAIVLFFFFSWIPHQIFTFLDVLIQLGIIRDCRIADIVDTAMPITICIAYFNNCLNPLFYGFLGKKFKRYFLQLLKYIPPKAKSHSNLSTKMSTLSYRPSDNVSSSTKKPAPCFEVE

[3] = target: T2, Neuropeptide Y receptor type 1 (Homo sapiens, UniProt P25929)
T2 sequence (P25929 whole entry): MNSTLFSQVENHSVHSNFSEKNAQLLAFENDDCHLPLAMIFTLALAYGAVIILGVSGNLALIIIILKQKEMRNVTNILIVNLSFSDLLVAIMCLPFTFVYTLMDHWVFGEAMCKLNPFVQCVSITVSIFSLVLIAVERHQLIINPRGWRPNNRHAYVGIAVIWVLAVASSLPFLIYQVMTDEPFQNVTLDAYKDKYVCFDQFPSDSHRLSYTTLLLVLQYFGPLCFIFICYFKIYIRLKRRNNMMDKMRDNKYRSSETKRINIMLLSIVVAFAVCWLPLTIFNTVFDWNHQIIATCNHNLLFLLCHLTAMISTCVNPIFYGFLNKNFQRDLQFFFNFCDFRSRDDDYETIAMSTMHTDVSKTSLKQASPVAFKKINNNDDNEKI

[4] = target: T3, Amine oxidase [flavin-containing] A (Homo sapiens, UniProt P21397); assay type: functional
T3 sequence (P21397 whole entry): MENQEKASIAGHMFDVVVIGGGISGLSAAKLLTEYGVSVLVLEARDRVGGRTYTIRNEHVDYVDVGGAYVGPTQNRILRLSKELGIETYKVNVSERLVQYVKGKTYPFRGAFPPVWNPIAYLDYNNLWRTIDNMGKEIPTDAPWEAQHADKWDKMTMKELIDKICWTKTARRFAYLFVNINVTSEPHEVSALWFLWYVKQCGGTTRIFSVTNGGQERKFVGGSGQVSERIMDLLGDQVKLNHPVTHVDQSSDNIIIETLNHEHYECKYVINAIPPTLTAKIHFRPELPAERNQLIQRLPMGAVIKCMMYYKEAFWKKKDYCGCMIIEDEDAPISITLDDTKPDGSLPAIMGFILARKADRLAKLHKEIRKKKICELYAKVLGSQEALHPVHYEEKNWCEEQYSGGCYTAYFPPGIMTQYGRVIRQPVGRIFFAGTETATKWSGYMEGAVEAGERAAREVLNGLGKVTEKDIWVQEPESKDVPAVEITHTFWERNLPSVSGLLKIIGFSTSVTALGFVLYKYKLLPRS

[5] = target: T4, Cholecystokinin receptor type A (Homo sapiens, UniProt P32238)
T4 sequence (P32238 whole entry): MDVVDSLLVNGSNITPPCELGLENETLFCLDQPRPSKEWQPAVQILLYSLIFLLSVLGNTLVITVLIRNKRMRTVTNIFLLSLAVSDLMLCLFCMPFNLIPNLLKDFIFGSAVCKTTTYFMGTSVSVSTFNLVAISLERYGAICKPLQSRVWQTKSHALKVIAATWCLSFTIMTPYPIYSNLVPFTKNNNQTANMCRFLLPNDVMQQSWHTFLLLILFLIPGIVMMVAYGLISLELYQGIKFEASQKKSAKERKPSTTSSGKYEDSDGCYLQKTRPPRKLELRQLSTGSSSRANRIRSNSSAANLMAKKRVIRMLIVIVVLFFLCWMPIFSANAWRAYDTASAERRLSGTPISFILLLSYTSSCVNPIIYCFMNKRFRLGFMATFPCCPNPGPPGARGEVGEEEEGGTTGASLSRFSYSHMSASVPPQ

Estrogen receptor = target: T5, Estrogen receptor (Homo sapiens, UniProt P03372)
T5 sequence (P03372 whole entry): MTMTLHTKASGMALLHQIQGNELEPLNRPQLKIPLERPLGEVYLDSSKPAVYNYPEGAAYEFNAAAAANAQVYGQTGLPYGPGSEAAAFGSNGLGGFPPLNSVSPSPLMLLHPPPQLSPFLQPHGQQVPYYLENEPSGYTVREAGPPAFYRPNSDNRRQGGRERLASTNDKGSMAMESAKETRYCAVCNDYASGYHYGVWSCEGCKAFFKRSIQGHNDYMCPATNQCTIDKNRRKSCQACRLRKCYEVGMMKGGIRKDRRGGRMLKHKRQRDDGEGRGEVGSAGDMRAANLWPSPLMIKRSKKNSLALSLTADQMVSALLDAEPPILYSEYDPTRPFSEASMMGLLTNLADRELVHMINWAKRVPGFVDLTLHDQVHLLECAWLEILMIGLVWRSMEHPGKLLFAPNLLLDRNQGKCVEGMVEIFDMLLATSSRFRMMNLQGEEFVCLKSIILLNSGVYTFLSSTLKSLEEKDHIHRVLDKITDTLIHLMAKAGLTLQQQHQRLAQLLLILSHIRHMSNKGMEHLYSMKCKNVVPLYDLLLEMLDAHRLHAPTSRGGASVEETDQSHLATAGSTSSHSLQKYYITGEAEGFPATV

Adenosine receptor A3 = target: T6, Adenosine receptor A3 (Homo sapiens, UniProt P0DMS8)
T6 sequence (P0DMS8 whole entry): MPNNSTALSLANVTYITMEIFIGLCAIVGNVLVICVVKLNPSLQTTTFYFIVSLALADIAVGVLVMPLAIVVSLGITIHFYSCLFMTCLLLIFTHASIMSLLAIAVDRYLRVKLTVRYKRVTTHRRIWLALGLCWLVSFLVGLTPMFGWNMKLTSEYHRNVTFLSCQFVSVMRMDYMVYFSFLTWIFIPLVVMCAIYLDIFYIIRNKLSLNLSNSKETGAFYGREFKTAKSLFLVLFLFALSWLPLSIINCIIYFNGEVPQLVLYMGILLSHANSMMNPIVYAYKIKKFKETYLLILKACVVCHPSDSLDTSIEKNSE

Mu-type opioid receptor = Mu-type opioid receptor (Homo sapiens, UniProt P35372)
Chain of Mu-type opioid receptor (P35372 whole entry): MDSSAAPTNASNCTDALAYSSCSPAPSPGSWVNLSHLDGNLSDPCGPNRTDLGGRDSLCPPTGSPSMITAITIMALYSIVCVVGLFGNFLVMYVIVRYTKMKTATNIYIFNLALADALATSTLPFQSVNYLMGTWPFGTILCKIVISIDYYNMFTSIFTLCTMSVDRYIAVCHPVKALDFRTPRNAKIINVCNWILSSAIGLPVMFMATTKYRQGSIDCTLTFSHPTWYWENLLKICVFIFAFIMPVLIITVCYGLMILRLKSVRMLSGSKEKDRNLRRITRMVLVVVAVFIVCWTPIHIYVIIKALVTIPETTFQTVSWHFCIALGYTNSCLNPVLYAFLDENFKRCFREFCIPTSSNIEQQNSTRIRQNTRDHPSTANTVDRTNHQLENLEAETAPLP
Further: assay procedure not described here.

Chain of Kappa-type opioid receptor (P41145 whole entry): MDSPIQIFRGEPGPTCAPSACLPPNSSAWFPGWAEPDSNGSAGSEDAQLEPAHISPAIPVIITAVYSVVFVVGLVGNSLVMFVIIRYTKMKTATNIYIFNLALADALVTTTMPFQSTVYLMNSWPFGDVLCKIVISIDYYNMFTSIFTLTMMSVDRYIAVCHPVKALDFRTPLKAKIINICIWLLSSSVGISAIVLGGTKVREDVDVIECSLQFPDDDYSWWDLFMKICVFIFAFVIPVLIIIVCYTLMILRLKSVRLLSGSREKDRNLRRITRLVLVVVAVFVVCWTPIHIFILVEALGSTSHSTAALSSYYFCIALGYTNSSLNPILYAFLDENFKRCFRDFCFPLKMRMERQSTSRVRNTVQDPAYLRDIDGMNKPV
Chain of Melanocortin receptor 4 (P32245 whole entry): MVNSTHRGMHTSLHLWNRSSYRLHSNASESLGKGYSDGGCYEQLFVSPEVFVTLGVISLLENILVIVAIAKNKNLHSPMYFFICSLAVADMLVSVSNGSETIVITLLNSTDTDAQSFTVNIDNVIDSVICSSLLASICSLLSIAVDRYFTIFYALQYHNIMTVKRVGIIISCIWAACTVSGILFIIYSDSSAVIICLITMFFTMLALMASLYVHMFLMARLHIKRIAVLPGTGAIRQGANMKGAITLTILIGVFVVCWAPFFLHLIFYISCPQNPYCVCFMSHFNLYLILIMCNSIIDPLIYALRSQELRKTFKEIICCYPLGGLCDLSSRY
Chain of Melanocortin receptor 3 (P41968 whole entry): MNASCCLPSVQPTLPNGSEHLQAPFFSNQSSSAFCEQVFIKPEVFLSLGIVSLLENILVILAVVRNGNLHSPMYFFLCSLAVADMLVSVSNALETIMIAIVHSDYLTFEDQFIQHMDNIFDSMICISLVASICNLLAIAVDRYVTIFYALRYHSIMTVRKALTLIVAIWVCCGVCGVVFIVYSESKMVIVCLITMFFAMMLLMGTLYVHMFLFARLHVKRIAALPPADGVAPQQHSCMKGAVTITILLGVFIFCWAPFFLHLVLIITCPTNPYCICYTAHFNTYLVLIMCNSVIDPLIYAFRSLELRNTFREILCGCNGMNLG

Compound | AC50 (Estrogen receptor) [µM] | AC50 (Adenosine receptor A3) [µM] | AC50 (Mu-type opioid receptor) [µM] | also measured
C[N+]1(C)CCC(=C(c2ccccc2)c2ccccc2)CC1 | – | – | – | AC50 (Melanocortin receptor 3): > 30 µM; AC50 (Melanocortin receptor 4): > 30 µM; AC50 [1]: > 10 µM; AC50 [2]: > 10 µM; AC50 [3]: > 30 µM; AC50 [4]: > 10 µM; AC50 [5]: > 30 µM
Cc1cc2c(cc1S(N)(=O)=O)S(=O)(=O)CCC2 | > 30 | > 30 | > 30 | –
O=C(O)[C@@H]1C[C@@H](O)CN1 | > 30 | > 30 | > 10 | –
CN(C)Cc1nnc2n1-c1ccc(Cl)cc1C(c1ccccc1)=NC2 [ADINAZOLAM] | – | – | – | AC50 (Melanocortin receptor 3): > 10 µM; AC50 (Melanocortin receptor 4): > 10 µM; AC50 [1]: 3.29 µM; AC50 [2]: > 10 µM; AC50 [3]: > 10 µM; AC50 [4]: > 10 µM; AC50 [5]: > 10 µM
Cc1ccccc1-n1c(CF)nc2ccc(N)cc2c1=O [AFLOQUALONE] | – | – | – | AC50 (Melanocortin receptor 3): > 30 µM; AC50 (Melanocortin receptor 4): > 30 µM; AC50 [1]: > 10 µM; AC50 [2]: > 30 µM; AC50 [3]: > 30 µM; AC50 [4]: > 10 µM; AC50 [5]: > 30 µM
CC1(C)S[C@@H]2[C@H](/N=C/N3CCCCCC3)C(=O)N2[C@H]1C(=O)O [AMDINOCILLIN] | > 30 | > 30 | > 30 | –
CC(=O)[C@]1(N)Cc2c(O)c3c(c(O)c2[C@@H](O[C@H]2C[C@H](O)[C@H](O)CO2)C1)C(=O)c1ccccc1C3=O [AMRUBICIN] | > 30 | > 30 | > 30 | –
NC(=O)[C@@H]1CC[C@@H]2CN1C(=O)N2OS(=O)(=O)O [AVIBACTAM] | > 30 | > 30 | > 30 | –
CC(=O)OC[C@H]1O[C@@H](n2ncc(=O)[nH]c2=O)[C@H](OC(C)=O)[C@@H]1OC(C)=O [AZARIBINE] | > 30 | > 30 | > 30 | –
CC(C)(C)NC(=O)N[C@H](C(=O)N1C[C@H]2[C@@H]([C@H]1C(=O)NC(CC1CCC1)C(=O)C(N)=O)C2(C)C)C(C)(C)C (stereo partly specified) [BOCEPREVIR] | > 30 | > 30 | > 30 | –
C=C1CC[C@H](O)C/C1=C/C=C1\CCC[C@]2(C)[C@@H]([C@H](C)CCCC(C)C)CC[C@@H]12 [CHOLECALCIFEROL] | > 30 | 14.8 | > 30 | –
Cc1ncc2c(c1O)COC2c1ccc(Cl)cc1 (stereo unspecified) [CICLETANINE] | > 30 | > 30 | > 30 | –
N#Cc1ccc(Oc2ccc3c(c2)COB3O)cc1 [CRISABOROLE] | > 30 | > 30 | > 30 | –
CC(=O)O[C@H]1Cc2ccccc2N(C(N)=O)c2ccccc21 [ESLICARBAZEPINE ACETATE] | > 30 | > 30 | > 30 | –
Cc1ccc(S(=O)(=O)NC(=O)NC2CCCCC2)cc1 [GLYCYCLAMIDE] | > 30 | 12.7 | > 30 | –
CN1CCCN(C(c2ccccc2)c2ccc(Cl)cc2)CC1 (stereo unspecified) [HOMOCHLORCYCLIZINE] | > 30 | > 30 | 7.4 | –

Compound | AC50 (Estrogen receptor) [µM] | AC50 (Adenosine receptor A3) [µM] | AC50 (Mu-type opioid receptor) [µM] | also measured
CN(C)CCCN1c2ccccc2CCc2ccccc21 [IMIPRAMINE] | – | – | – | AC50 (Melanocortin receptor 3): 18.8 µM; AC50 (Melanocortin receptor 4): 21.4 µM; AC50 [2]: > 30 µM; AC50 [3]: > 30 µM; AC50 [4]: > 10 µM; AC50 [5]: > 30 µM
CC(COc1ccccc1)NC(C)C(O)c1ccc(O)cc1 (stereo unspecified) [ISOXSUPRINE] | > 30 | > 30 | 8.69 | –
Cc1oc(=O)oc1COC(=O)[C@@H]1N2C(=O)[C@@H](NC(=O)[C@H](N)c3ccccc3)[C@H]2SC1(C)C [LENAMPICILLIN] | > 30 | > 30 | > 30 | –
COc1ccc(OC)c(C(O)C(C)N)c1 (stereo unspecified) [METHOXAMINE] | > 30 | > 30 | > 30 | –
CC1(CCN2CCCCC2)C(=O)CCc2ccccc21 (stereo unspecified) [NEPINALONE] | > 30 | > 30 | > 30 | –
CC[N+](C)(CC)CCOC(=O)C(O)(c1ccccc1)C1CCCCC1 (stereo unspecified) [OXYPHENONIUM] | > 30 | > 30 | > 30 | –
C[C@@H]1C[C@H]2[C@@H]3C[C@H](F)C4=CC(=O)C=C[C@]4(C)[C@H]3[C@@H](O)C[C@]2(C)[C@@]1(O)C(=O)CO [PARAMETHASONE] | > 30 | > 30 | > 30 | –
CCC[C@H](N[C@@H](C)C(=O)N1[C@H](C(=O)O)C[C@@H]2CCCC[C@@H]21)C(=O)OCC [PERINDOPRIL] | > 30 | > 30 | > 30 | –
NNCCc1ccccc1 [PHENELZINE] | > 30 | > 30 | > 30 | –
N[C@@H](Cc1ccccc1)C(=O)O [PHENYLALANINE] | > 30 | > 30 | > 30 | –
CCCn1cnc2c1c(=O)n(CCCCC(C)=O)c(=O)n2C [PROPENTOFYLLINE] | 28.9 | > 30 | > 30 | –
Clc1ccc(C(Cn2ccnc2)OCc2csc3c(Cl)cccc23)c(Cl)c1 (stereo unspecified) [SERTACONAZOLE] | > 30 | 1.63 | 3.59 | –
CC(OCCN1CCCCCC1)(c1ccccc1)c1ccc(Cl)cc1 (stereo unspecified) [SETASTINE] | > 30 | > 30 | 3.66 | –
CCCSc1nc(N[C@@H]2C[C@H]2c2ccc(F)c(F)c2)c2nnn([C@@H]3C[C@H](OCCO)[C@@H](O)[C@H]3O)c2n1 [TICAGRELOR] | > 30 | 0.106 | > 30 | –
c1ccc2c(SC3=NCCN3)c[nH]c2c1 [TINAZOLINE] | > 30 | > 30 | > 30 | –
Cc1ccc(C(=O)C(C)CN2CCCCC2)cc1 (stereo unspecified) [TOLPERISONE] | > 30 | > 30 | > 30 | –
